From US20240228572A1 (i2o Therapeutics, Inc., priority 2020, published 2024)
*1 amine or outer side, *2 acyl side, *3 side chain or, on linkers, in order; H or OH if unused. Where a SMILES comes first, the peptide text is derived from it. Bridges are numbered along the chain shown (N, C = ends). Side-chain parts run from the residue outwards. The star is where a group is joined. C20 diacid = O=C(O)CCCCCCCCCCCCCCCCCCC(=O)*; γGlu = O=C(O)[C@H](CCC(=O)[*:2])N[*:1]; AEEA = NCCOCCOCC(=O)O

What was measured:
[1] = target: T1, human Glucagon receptor (GCGR) (Homo sapiens, UniProt P47871); experiment: cAMP accumulation assay, CHO-K1 cells expressing human GCGR; type: cell-based; conditions: mean pEC50, Table 10
T1 construct: A cDNA fragment encoding the full-length open reading frame of the human GCGR; expressed in transfected cells; host or cells: CHO-K1, pcDNA3.1+, Lipofectamine 2000

[2] = target: T2, human GLP-1 receptor (GLP-1R) (Homo sapiens, UniProt P43220); experiment: cAMP accumulation assay, CHO-K1 cells stably expressing human GLP-1R; type: cell-based; conditions: cAMP accumulation, mean pEC50, Table 10
T2 construct: expressed in transfected cells

[3] = cited from earlier work

T1 sequence (P47871 26-477): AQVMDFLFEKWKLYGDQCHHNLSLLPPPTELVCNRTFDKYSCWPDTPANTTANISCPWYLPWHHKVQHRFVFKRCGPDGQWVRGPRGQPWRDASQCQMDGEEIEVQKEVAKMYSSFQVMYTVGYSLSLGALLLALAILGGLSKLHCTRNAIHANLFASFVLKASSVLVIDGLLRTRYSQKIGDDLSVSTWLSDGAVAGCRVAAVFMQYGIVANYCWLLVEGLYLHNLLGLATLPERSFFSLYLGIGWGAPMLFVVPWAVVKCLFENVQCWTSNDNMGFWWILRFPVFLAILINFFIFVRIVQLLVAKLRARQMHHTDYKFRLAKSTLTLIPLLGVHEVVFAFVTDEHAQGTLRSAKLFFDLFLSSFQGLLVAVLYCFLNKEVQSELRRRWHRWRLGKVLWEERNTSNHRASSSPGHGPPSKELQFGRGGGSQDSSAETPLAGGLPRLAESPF
T2 sequence (P43220 24-463): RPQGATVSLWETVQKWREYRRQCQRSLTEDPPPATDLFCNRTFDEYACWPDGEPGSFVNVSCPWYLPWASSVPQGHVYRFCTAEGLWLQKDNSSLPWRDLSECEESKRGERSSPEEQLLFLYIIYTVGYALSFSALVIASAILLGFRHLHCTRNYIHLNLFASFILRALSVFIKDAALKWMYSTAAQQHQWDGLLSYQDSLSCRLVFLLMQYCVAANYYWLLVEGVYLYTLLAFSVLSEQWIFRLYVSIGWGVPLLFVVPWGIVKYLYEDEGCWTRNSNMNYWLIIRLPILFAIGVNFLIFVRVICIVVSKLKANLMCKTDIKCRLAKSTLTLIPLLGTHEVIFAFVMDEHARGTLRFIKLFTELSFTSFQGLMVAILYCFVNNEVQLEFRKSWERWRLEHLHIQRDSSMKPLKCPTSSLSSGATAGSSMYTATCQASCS

EC50 [1] [pM]	EC50 [2] [pM]	Compound	half-life in serum [3]
1.26	> 1000	CC(C)C[C@H](NC(=O)[C@H](Cc1ccc(O)cc1)NC(=O)[C@H](CCCCN)NC(=O)[C@H](CO)NC(=O)[C@H](Cc1ccc(O)cc1)NC(=O)[C@H](CC(=O)O)NC(=O)[C@H](CO)NC(=O)[C@@H](NC(=O)[C@H](Cc1ccccc1)NC(=O)[C@@H](NC(=O)CNC(=O)[C@H](Cc1c[nH]cn1)NC(=O)[C@H](CO)NC(=O)[C@@H](N)Cc1ccc(O)cc1)[C@@H](C)O)[C@@H](C)O)C(=O)N[C@@H](CC(=O)O)C(=O)N[C@@H](CCCCNC(=O)CC[C@H](NC(=O)CC[C@H](NC(=O)COCCOCCNC(=O)CCCCCCCCCCCCCCCCCCC(=O)O)C(=O)O)C(=O)O)C(=O)N[C@@H](CCCCN)C(=O)N[C@@H](Cc1ccc(O)cc1)C(=O)N[C@@H](C)C(=O)N[C@H]1CCC(=O)NCCCC[C@@H](C(=O)N[C@@H](Cc2c[nH]c3ccccc23)C(=O)N[C@@H](CC(C)C)C(=O)N[C@@H](CCC(=O)O)C(=O)N[C@@H](CC(=O)O)C(=O)N[C@@H](CCC(=O)O)C(=O)N2CCC[C@H]2C(=O)N[C@@H](CO)C(=O)N[C@@H](CO)C(=O)NCC(=O)N[C@@H](CO)C(=O)N2CCC[C@H]2C(=O)N2CCC[C@H]2C(=O)N2CCC[C@H]2C(=O)N[C@@H](CO)C(=O)O)NC(=O)[C@H](C(C)C)NC(=O)[C@H](Cc2ccccc2)NC(=O)[C@H](CCCCN)NC1=O [Compound A33] (H-YSHGTFTSDYSKYLDK([γGlu-γGlu-AEEA-C20 diacid])KYAEKFVKWLEDEPSSGSPPPS-OH; lactam 20-24; N-terminus assumed)	–
1.26	> 1000	CC(C)C[C@H](NC(=O)[C@H](Cc1ccc(O)cc1)NC(=O)[C@H](CCCCN)NC(=O)[C@H](CO)NC(=O)[C@H](Cc1ccc(O)cc1)NC(=O)[C@H](CC(=O)O)NC(=O)[C@H](CO)NC(=O)[C@@H](NC(=O)[C@H](Cc1ccccc1)NC(=O)[C@@H](NC(=O)CNC(=O)[C@H](Cc1c[nH]cn1)NC(=O)[C@H](CO)NC(=O)[C@@H](N)Cc1ccc(O)cc1)[C@@H](C)O)[C@@H](C)O)C(=O)N[C@@H](CC(=O)O)C(=O)N[C@@H](CCCCNC(=O)CC[C@H](NC(=O)CC[C@H](NC(=O)COCCOCCNC(=O)CCCCCCCCCCCCCCCCCCC(=O)O)C(=O)O)C(=O)O)C(=O)N[C@@H](CCCCN)C(=O)N[C@@H](Cc1ccc(O)cc1)C(=O)N[C@@H](C)C(=O)N[C@H]1CCC(=O)NCCCC[C@@H](C(=O)N[C@@H](Cc2c[nH]c3ccccc23)C(=O)N[C@@H](CC(C)C)C(=O)N[C@@H](CCC(=O)O)C(=O)N[C@@H](CC(=O)O)C(=O)N[C@@H](CCC(=O)O)C(N)=O)NC(=O)[C@H](C(C)C)NC(=O)[C@H](Cc2ccccc2)NC(=O)[C@H](CCCCN)NC1=O [Compound A35] (H-YSHGTFTSDYSKYLDK([γGlu-γGlu-AEEA-C20 diacid])KYAEKFVKWLEDE-NH2; lactam 20-24; N-terminus assumed)	–
–	–	human amylin: Human amylin, or islet amyloid polypeptide (IAPP), is a 37-residue polypeptide hormone (KCNTATCATQRLANFLVHSSNNFGAILSSTNVGSNTY; Islet amyloid polypeptide; UniProt P10997 34-70, looked up)	about 13 minutes

Compound	EC50 [1] [pM]	EC50 [2] [pM]	half-life in serum [3]
CC(C)C[C@H](NC(=O)[C@H](Cc1ccc(O)cc1)NC(=O)[C@H](CCCCN)NC(=O)[C@H](CO)NC(=O)[C@H](Cc1ccc(O)cc1)NC(=O)[C@H](CC(=O)O)NC(=O)[C@H](CO)NC(=O)[C@@H](NC(=O)[C@H](Cc1ccccc1)NC(=O)[C@@H](NC(=O)CNC(=O)[C@H](Cc1c[nH]cn1)NC(=O)[C@H](CO)NC(=O)[C@@H](N)Cc1ccc(O)cc1)[C@@H](C)O)[C@@H](C)O)C(=O)N[C@@H](CC(=O)O)C(=O)N[C@@H](CCCCNC(=O)CC[C@H](NC(=O)CC[C@H](NC(=O)COCCOCCNC(=O)CCCCCCCCCCCCCCCCCCC(=O)O)C(=O)O)C(=O)O)C(=O)N[C@@H](CCCCN)C(=O)N[C@@H](Cc1ccc(O)cc1)C(=O)N[C@@H](C)C(=O)N[C@H]1CCC(=O)NCCCC[C@@H](C(=O)N[C@@H](Cc2c[nH]c3ccccc23)C(=O)N[C@@H](CC(C)C)C(=O)N[C@@H](CCC(=O)O)C(=O)N[C@@H](CC(=O)O)C(=O)N[C@@H](CCC(=O)O)C(=O)N2CCC[C@H]2C(=O)N[C@@H](CO)C(=O)N[C@@H](CO)C(=O)NCC(=O)N[C@@H](C)C(=O)N2CCC[C@H]2C(=O)N2CCC[C@H]2C(=O)N2CCC[C@H]2C(=O)N[C@@H](CO)C(N)=O)NC(=O)[C@H](C(C)C)NC(=O)[C@H](Cc2ccccc2)NC(=O)[C@H](CCCCN)NC1=O [Compound A34] (H-YSHGTFTSDYSKYLDK([γGlu-γGlu-AEEA-C20 diacid])KYAEKFVKWLEDEPSSGAPPPS-NH2; lactam 20-24)	1.26	> 1000	–
